Reference: ChEMBL document CHEMBL1136523, “A novel estrogen receptor ligand template” (Bioorg Med Chem Lett, 2003)

Key:
[1] = target: T1, Estrogen receptor (Homo sapiens, UniProt P03372); assay: In vitro binding affinity for estrogen receptor alpha
T1 sequence (P03372 whole entry): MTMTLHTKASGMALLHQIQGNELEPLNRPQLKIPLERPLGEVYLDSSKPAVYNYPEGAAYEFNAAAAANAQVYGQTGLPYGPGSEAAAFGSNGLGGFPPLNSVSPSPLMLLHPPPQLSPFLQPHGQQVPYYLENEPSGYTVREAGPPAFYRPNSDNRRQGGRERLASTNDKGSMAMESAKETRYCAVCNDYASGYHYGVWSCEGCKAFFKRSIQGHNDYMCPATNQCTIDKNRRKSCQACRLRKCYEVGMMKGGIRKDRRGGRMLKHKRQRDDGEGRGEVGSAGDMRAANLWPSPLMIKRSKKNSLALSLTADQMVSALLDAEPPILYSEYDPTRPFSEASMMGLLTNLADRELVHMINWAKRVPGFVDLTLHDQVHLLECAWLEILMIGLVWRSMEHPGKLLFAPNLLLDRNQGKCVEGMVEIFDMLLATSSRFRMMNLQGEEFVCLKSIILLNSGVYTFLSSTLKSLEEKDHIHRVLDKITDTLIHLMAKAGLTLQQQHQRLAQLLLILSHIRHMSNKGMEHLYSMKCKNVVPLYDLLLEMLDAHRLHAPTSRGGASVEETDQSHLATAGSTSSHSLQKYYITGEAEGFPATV

[2] = target: Estrogen receptor (Homo sapiens, UniProt Q92731+P03372); assay: Percent agonistic activity for estrogen-induced pS2 expression in MCF-7 cells; format: functional, cell-based; conditions: mcf7
[3] = target: Estrogen receptor beta (Homo sapiens, UniProt Q92731)
Chain of Estrogen receptor beta (Q92731 whole entry): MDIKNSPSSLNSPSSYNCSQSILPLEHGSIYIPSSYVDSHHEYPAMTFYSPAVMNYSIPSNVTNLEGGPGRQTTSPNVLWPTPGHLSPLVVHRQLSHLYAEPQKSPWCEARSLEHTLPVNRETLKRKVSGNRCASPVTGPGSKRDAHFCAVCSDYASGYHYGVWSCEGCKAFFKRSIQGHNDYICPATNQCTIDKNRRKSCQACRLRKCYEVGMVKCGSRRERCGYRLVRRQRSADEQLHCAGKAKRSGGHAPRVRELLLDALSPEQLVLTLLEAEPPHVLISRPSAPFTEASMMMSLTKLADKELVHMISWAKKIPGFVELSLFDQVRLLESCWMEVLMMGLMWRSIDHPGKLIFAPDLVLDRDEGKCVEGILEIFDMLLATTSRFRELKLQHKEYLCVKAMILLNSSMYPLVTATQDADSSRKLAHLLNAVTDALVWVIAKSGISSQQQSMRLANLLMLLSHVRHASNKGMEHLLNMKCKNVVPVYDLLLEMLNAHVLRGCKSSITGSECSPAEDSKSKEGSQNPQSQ
Description: In vitro binding affinity for estrogen receptor beta

`OC[C@@]12CC=C[C@@H](C1)[C@H](c1ccc(O)cc1)CC2` was tested, and the IC50 [1] was 550 nM, the EC50 [2] was < 10 nM and the IC50 [3] was 75 nM.
